Measurements: patent publication US20070128217A1 (priority 2003, published 2007)

What was measured:
[1] = system: control sera (pooled serum of ten healthy LUMC hospital workers; commercial negative donor pooled serum from the Dutch bloodbank); type: binding, human; parameters: Binding of Control serum LUMC to linear peptides / Binding of Control serum Blood-bank to linear peptides / Binding of Control serum LUMC to looped peptides / Binding of Control Serum Blood-Bank to Looped peptides / Binding of Control serum LUMC to linear peptides of the protein M of SARS-CoV Urbani / Binding of Control serum Blood-bank to linear peptides of the protein M of SARS-CoV Urbani / Binding of Control serum LUMC to looped peptides of the protein M of SARS-CoV Urbani / Binding of Control Serum Blood-Bank to Looped peptides of the protein M of SARS-CoV Urbani: unit not given here
[2] = system: antibodies in sera from SARS patients (sera 1a, 1b, 2, 6, 37, 62, London, SARS-yellow, SARS-green); type: binding, human; parameters: Binding of serum 6 to linear peptides of protein X1 of SARS-CoV Urbani / Binding of serum 37 to linear peptides of protein X1 of SARS-CoV Urbani / Binding of serum 6 to looped/cyclic peptide (PEPSCAN-ELISA) / Binding of serum 37 to looped/cyclic peptide (PEPSCAN-ELISA) / Binding of serum 37 to looped/cyclic peptides of protein X1 of SARS-CoV Urbani / Binding of serum 6 to linear peptides of protein X2 / Binding of serum 37 to linear peptides of protein X2 / Binding of serum 37 to looped/cyclic peptides of protein X2 of SARS-CoV Urbani / Binding of serum 6 to linear peptides of protein M of SARS-CoV Urbani / Binding of serum 37 to linear peptides of protein M of SARS-CoV Urbani / Binding of serum 6 to looped/cyclic peptides of protein M of SARS-CoV Urbani / Binding of serum 37 to looped/cyclic peptides of protein M of SARS-CoV Urbani / Binding of serum 6 to linear peptides of protein X3 of SARS-CoV Urbani / Binding of serum 37 to linear peptides of protein X3 of SARS-CoV Urbani / Binding of serum 37 to looped/cyclic peptides of protein X3 of SARS-CoV Urbani / Binding of serum 6 to linear peptides of protein X4 of SARS-CoV Urbani / Binding of serum 37 to linear peptides of protein X4 of SARS-CoV Urbani / Binding of serum 37 to looped/cyclic peptides of protein X4 of SARS-CoV Urbani / Binding of serum 6 to linear peptides of protein X5 of SARS-CoV Urbani / Binding of serum 37 to linear peptides of protein X5 of SARS-CoV Urbani / Binding of serum 37 to looped/cyclic peptides of protein X5 of SARS-CoV Urbani / Binding of serum 6 to linear peptides of protein N of SARS-CoV Urbani / Binding of serum 37 to linear peptides of protein N of SARS-CoV Urbani / Binding of serum 6 to linear peptide (PEPSCAN-ELISA) / Binding of serum 1a to looped/cyclic peptides of protein N of SARS-CoV Urbani / Binding of serum 1b to looped/cyclic peptides of protein N of SARS-CoV Urbani / Binding of serum 2 to looped/cyclic peptides of protein N of SARS-CoV Urbani / Binding of serum 6 to looped/cyclic peptides of protein N of SARS-CoV Urbani / Binding of serum 37 to looped/cyclic peptides of protein N of SARS-CoV Urbani / Binding of serum 62 to looped/cyclic peptides of protein N of SARS-CoV Urbani / Binding of serum London to looped/cyclic peptides of protein N of SARS-CoV Urbani / Binding of serum SARS-green to looped/cyclic peptides of protein N of SARS-CoV Urbani: unit not given here

Question: For CPSGTYEGNSPFHPL, which “Binding of Control Serum Blood-Bank to Looped peptides” value [1] is on record?
Answer: 0.8

Question: What about the “Binding of Control serum Blood-bank to linear peptides” value [1] of the same sequence?
Answer: 0.7

Question: What about the “Binding of Control serum LUMC to linear peptides” value [1] of the same sequence?
Answer: 0.6

Question: And the “Binding of Control serum LUMC to looped peptides” value [1]?
Answer: 0.8

Question: What does the source list for ACRTIMRCWLCWKCK?
Answer: Binding of serum 1a to looped/cyclic peptide (PEPSCAN-ELISA) [2]: 0.7; Binding of serum 1b to looped/cyclic peptide (PEPSCAN-ELISA) [2]: 0.9; Binding of serum 2 to looped/cyclic peptide (PEPSCAN-ELISA) [2]: 0.6; Binding of serum 6 to looped/cyclic peptide (PEPSCAN-ELISA) [2]: 0.3; Binding of serum 37 to looped/cyclic peptide (PEPSCAN-ELISA) [2]: 0.8; Binding of serum 62 to looped/cyclic peptide (PEPSCAN-ELISA) [2]: 0.5; Binding of serum London to looped/cyclic peptide (PEPSCAN-ELISA) [2]: 0.2; Binding of serum SARS-green to looped/cyclic peptide (PEPSCAN-ELISA) [2]: 1.2; Binding of serum SARS-yellow to looped/cyclic peptide (PEPSCAN-ELISA) [2]: 0.7

Question: What does the source list for QLALYKGFQPICNLL?
Answer: Binding of serum 1a to linear peptides of protein X1 of SARS-CoV Urbani [2]: 0.6; Binding of serum 1b to linear peptides of protein X1 of SARS-CoV Urbani [2]: 0.5; Binding of serum 2 to linear peptides of protein X1 of SARS-CoV Urbani [2]: 0.4; Binding of serum 6 to linear peptides of protein X1 of SARS-CoV Urbani [2]: 0.5; Binding of serum 37 to linear peptides of protein X1 of SARS-CoV Urbani [2]: 0.6; Binding of serum 62 to linear peptides of protein X1 of SARS-CoV Urbani [2]: 0.6; Binding of serum London to linear peptides of protein X1 of SARS-CoV Urbani [2]: 0.2; Binding of serum SARS-green to linear peptides of protein X1 of SARS-CoV Urbani [2]: 0.2; Binding of serum SARS-yellow to linear peptides of protein X1 of SARS-CoV Urbani [2]: 0.5

Question: Which “Binding of Control Serum Blood-Bank to Looped peptides of the protein M of SARS-CoV Urbani” value [1] does the source give for LACPVLAAVYRINWV here?
Answer: 0.7

Question: What about the “Binding of Control serum Blood-bank to linear peptides of the protein M of SARS-CoV Urbani” value [1] of the same sequence?
Answer: 0.7

Question: What about the “Binding of Control serum LUMC to linear peptides of the protein M of SARS-CoV Urbani” value [1] of the same sequence?
Answer: 0.6

Question: And the “Binding of Control serum LUMC to looped peptides of the protein M of SARS-CoV Urbani” value [1]?
Answer: 0.7

Question: What does the source list for RTLSYYKLGASQPVG?
Answer: Binding of Control Serum Blood-Bank to Looped peptides of the protein M of SARS-CoV Urbani [1]: 0.6; Binding of Control serum Blood-bank to linear peptides of the protein M of SARS-CoV Urbani [1]: 0.9; Binding of Control serum LUMC to linear peptides of the protein M of SARS-CoV Urbani [1]: 0.8; Binding of Control serum LUMC to looped peptides of the protein M of SARS-CoV Urbani [1]: 0.8

Question: What does the source list for HRWHTMVQTGTPNVT?
Answer: Binding of Control Serum Blood-Bank to Looped peptides [1]: 0.4; Binding of Control serum Blood-bank to linear peptides [1]: 0.8; Binding of Control serum LUMC to linear peptides [1]: 0.4; Binding of Control serum LUMC to looped peptides [1]: 0.4

Question: Which “Binding of Control Serum Blood-Bank to Looped peptides” value [1] does the source give for TLGSITAQPVKTDNA here?
Answer: 0.6

Question: And the “Binding of Control serum Blood-bank to linear peptides” value [1]?
Answer: 0.5

Question: What about the “Binding of Control serum LUMC to linear peptides” value [1] of the same sequence?
Answer: 0.7

Question: What about the “Binding of Control serum LUMC to looped peptides” value [1] of the same sequence?
Answer: 0.6

Question: Which “Binding of Control Serum Blood-Bank to Looped peptides” value [1] does the source give for LLIQQWTQFMMSRRR here?
Answer: 0.6

Question: What about the “Binding of Control serum Blood-bank to linear peptides” value [1] of the same sequence?
Answer: 0.5

Question: And the “Binding of Control serum LUMC to linear peptides” value [1]?
Answer: 0.4

Question: What about the “Binding of Control serum LUMC to looped peptides” value [1] of the same sequence?
Answer: 0.5

Question: What does the source list for LCKHKKVSTNLGTHS?
Answer: Binding of serum 1a to looped/cyclic peptides of protein X2 of SARS-CoV Urbani [2]: 0.3; Binding of serum 1b to looped/cyclic peptides of protein X2 of SARS-CoV Urbani [2]: 0.4; Binding of serum 2 to looped/cyclic peptides of protein X2 of SARS-CoV Urbani [2]: 0.3; Binding of serum 6 to looped/cyclic peptides of protein X2 of SARS-CoV Urbani [2]: 0.3; Binding of serum 37 to looped/cyclic peptides of protein X2 of SARS-CoV Urbani [2]: 0.3; Binding of serum 62 to looped/cyclic peptides of protein X2 of SARS-CoV Urbani [2]: 0.4; Binding of serum London to looped/cyclic peptides of protein X2 of SARS-CoV Urbani [2]: 0.3; Binding of serum SARS-green to looped/cyclic peptides of protein X2 of SARS-CoV Urbani [2]: 0.3; Binding of serum SARS-yellow to looped/cyclic peptides of protein X2 of SARS-CoV Urbani [2]: 0.5

Question: What does the source list for WQLALYKGFQFTCNL?
Answer: Binding of Control Serum Blood-Bank to Looped peptides [1]: 0.6; Binding of Control serum Blood-bank to linear peptides [1]: 0.6; Binding of Control serum LUMC to linear peptides [1]: 0.6; Binding of Control serum LUMC to looped peptides [1]: 0.7
